Marks after values point to notes of the source that are not given here.
Columns and labels:
Format in all cases: in vivo
[1] = test system: Septoria tritici (the causal agent of wheat leaf blotch); experiment: Test B: wheat leaf blotch, preventive spray on wheat seedlings, visual disease rating; settings: wheat leaf blotch, preventive spray on wheat seedlings; asterisk: 40 ppm test suspension
How it was run: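 Wheat seedlings sprayed to run-off with compound suspension (acetone/water with 250 ppm Trem 014; 200 ppm ≈ 800 g/ha, some at 40 ppm), inoculated next day with Septoria tritici spores. 48 h saturated humidity at 24 °C, then 19 days at 20 °C; visual rating, 100 = full control.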

[2] = test system: Puccinia recondite f. sp. tritici (the causal agent of wheat leaf rust); experiment: Test A: wheat leaf rust, preventive spray on wheat seedlings, visual disease rating; settings: wheat leaf rust, preventive spray on wheat seedlings
How it was run: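 Wheat seedlings were sprayed to run-off with compound suspended in acetone/water containing 250 ppm Trem 014 (200 ppm ≈ 800 g/ha; some at 40 ppm). Puccinia recondite spores were inoculated the next day. Plants were held 24 h saturated at 20° C, then 7 days at 20° C, and disease control was rated visually on a 0–100 scale against controls.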

[3] = test system: Blumeria graminis f. sp. tritici (also known as Erysiphe graminis f. sp. tritici, the causal agent of wheat powdery mildew); experiment: Test D: wheat powdery mildew, preventive spray on wheat seedlings, visual disease rating; settings: wheat powdery mildew, preventive spray on wheat seedlings; asterisk: 40 ppm test suspension
How it was run: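 Compound suspended in acetone/water (50/50) with 250 ppm Trem 014 and sprayed to run-off on wheat seedlings (200 ppm ≈ 800 g/ha), then inoculated next day with spore dust. Disease rated visually after 8 days at 20 °C as % control relative to untreated plants (0-100).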

[4] = test system: Botrytis cinerea (the causal agent of tomato Botrytis); experiment: Test C: tomato Botrytis, preventive spray on tomato seedlings, visual disease rating; settings: tomato Botrytis, preventive spray on tomato seedlings; asterisk: 40 ppm test suspension
How it was run: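 Test suspension (acetone/water with 250 ppm Trem 014; 200 ppm equivalent to 800 g/ha) sprayed to run-off on tomato seedlings; B. cinerea spores inoculated next day. After 48 h saturated humidity at 20° C then 3 days at 24° C, disease rated visually as % control relative to untreated controls (0–100).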

[5] = asterisk: 40 ppm test suspension

Compound | Test B rating (100 = 100% disease control, 0 = no disease control relative to the controls) [1] | Test A rating (100 = 100% disease control, 0 = no disease control relative to the controls) [2, 5] | Test D rating (100 = 100% disease control, 0 = no disease control relative to the controls) [3] | Test C rating (100 = 100% disease control, 0 = no disease control relative to the controls) [4] | Test A rating (100 = 100% disease control, 0 = no disease control relative to the controls) ([2]; no asterisk (standard test suspension concentration, not 40 ppm)) [%]
Cc1cc(F)ccc1C(O)c1c(C)nc(Cl)n1-c1c(F)cccc1Br (stereo not drawn) [compound 209] | 100* % | 99* % | 42* % | 100* % | –
COc1ccc(C(O)c2c(C)nc(Cl)n2-c2c(F)cccc2Cl)c(F)c1 (stereo not drawn) [compound 210] | 100* % | – | 99* % | 100* % | 100
COc1ccc(C(O)c2c(C)nc(Cl)n2-c2c(F)cccc2Br)c(F)c1 (stereo not drawn) [compound 211] | 100* % | 100* % | 98* % | 100* % | –
COc1ccc(C(O)c2c(C)nc(Cl)n2-c2c(F)cccc2Cl)c(C)c1 (stereo not drawn) [compound 212] | 100* % | 100* % | 97* % | 100* % | –
COc1ccc(C(O)c2c(C)nc(Cl)n2-c2c(F)cccc2Br)c(C)c1 (stereo not drawn) [compound 213] | 100* % | 100* % | 91* % | 100* % | –
COc1ccc(-n2c(C(O)c3ccc(F)cc3Cl)cnc2C)c(OC)c1 (stereo not drawn) [compound 214] | 0* % | 0* % | 0* % | 0* % | –
COc1ccc(C(O)c2c(Br)nc(C)n2-c2ccc(F)cc2Cl)c(F)c1 (stereo not drawn) [compound 302] | 100* % | 100* % | 64* % | 100* % | –
COc1ccc(C(O)c2cnc(C)n2-c2ccc(F)cc2Br)c(F)c1 (stereo not drawn) [compound 303] | 43* % | 74* % | 0* % | 8* % | –
Cc1ncc(C(O)c2c(F)cc(Cl)cc2F)n1-c1ccc(F)cc1Br (stereo not drawn) [compound 305] | 17* % | 9* % | 0* % | 21* % | –
COc1ccc(C(O)c2c(Cl)nc(C)n2-c2ccc(F)cc2F)c(F)c1 (stereo not drawn) [compound 306] | 100* % | 100* % | 0* % | 97* % | –
COc1ccc(C(O)c2c(Cl)nc(C)n2-c2ccc(F)cc2F)c(Cl)c1 (stereo not drawn) [compound 307] | 100* % | 99* % | 0* % | 0* % | –
Cc1nc(Br)c(C(O)c2c(F)cc(Cl)cc2F)n1-c1ccc(F)cc1Br (stereo not drawn) [compound 308] | 100* % | 100* % | 93* % | 100* % | –

— US20130143929A1, “FUNGICIDAL IMIDAZOLES” (EI DU PONT DE NEMOURS AND COMPANY, priority 2010, published 2013)
